Assay results: PubChem BioAssay (NCI)
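Where inhibition never reached the appropriate level, the endpoint shown equals the highest concentration tested. Otherwise, values were interpolated linearly from a five-concentration, 48-hour dose response in 96-well plates. Abbreviation: GI50, concentration required for 50% inhibition of growth. TGI: concentration producing complete growth inhibition.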

Columns and labels:
Experiment in all cases: NCI tumour cell line growth inhibition, 48 h
[1] = system: SK-OV-3 ovarian
[2] = system: SK-MEL-2 melanoma
[3] = system: M14 melanoma
[4] = system: SF-295 CNS
[5] = system: SNB-75 CNS
[6] = system: CCRF-CEM leukemia
[7] = system: NCI-H23 lung
[8] = system: SF-539 CNS
[9] = system: A498 renal
[10] = system: SR leukemia

Structure (SMILES) | GI50 [1] [nM] | TGI [1] [nM] | GI50 [2] [nM] | TGI [2] [nM] | GI50 [3] [nM] | TGI [3] [nM] | GI50 [4] [nM] | TGI [4] [nM] | GI50 [5] [nM] | TGI [5] [nM] | GI50 [6] [nM] | TGI [6] [nM] | GI50 [7] [nM] | TGI [7] [nM] | GI50 [8] [nM] | TGI [8] [nM] | GI50 [9] [nM] | TGI [9] [nM] | GI50 [10] [nM] | TGI [10] [nM]
O=C1c2cc3c(cc2-c2c1c1cc(Cl)c(Cl)cc1c(=O)n2CCCn1ccnc1)OCO3 | < 10 | 30.5 | 222 | 26700 | < 10 | 11800 | < 10 | 13.1 | < 10 | 17100 | < 10 | > 100000 | < 10 | 232 | < 10 | 20.6 | 10.7 | 63.8 | < 10 | 1670
COc1ccc(N(C)c2nc(C)nc3ccccc23)cc1 | < 10 | > 26100 | – | – | < 10 | 14900 | < 10 | – | < 10 | > 100000 | < 10 | > 100000 | < 10 | 20800 | < 10 | > 100000 | < 10 | < 10 | < 10 | > 36500
NNC(=O)/C(=C/c1cccc([N+](=O)[O-])c1)NC(=O)c1ccccc1 | – | > 100000 | – | > 100000 | – | > 100000 | – | > 100000 | – | > 100000 | – | > 100000 | – | > 100000 | – | > 100000 | – | > 100000 | – | > 100000
COc1ccccc1C(=O)/C=C/c1cc2cccc(OC)c2[nH]c1=O | 554 | 14900 | 656 | 4700 | < 13.1 | 300 | 25.6 | 3850 | 19.1 | 3600 | < 18.2 | > 37900 | 125 | 2040 | 21.1 | 84.8 | 15.8 | 78.8 | – | > 51300
C[C@@H](c1ccc2nccn2c1)n1nnc2ncc(-c3cnn(C)c3)nc21 | > 100000 | > 100000 | > 100000 | > 100000 | > 100000 | > 100000 | 830 | > 100000 | > 100000 | > 100000 | > 100000 | > 100000 | > 100000 | > 100000 | > 100000 | > 100000 | 72800 | > 100000 | 49900 | > 100000
Cc1ccc(S(=O)(=O)NC(CCC(=O)Nc2ccc(Cl)cc2)C(=O)Nc2ccc(Cl)cc2)cc1 (stereo unspecified) | 869 | 4360 | 570 | 6640 | 54.1 | 6580 | 187 | 956 | 743 | 2230 | 203 | 7220 | 1490 | 9210 | 210 | 1540 | 717 | 5340 | 197 | 6760
O=S(=O)(c1ccc(NC(=S)N/N=C/c2ccccc2O)cc1)N1CCCCC1 | – | 37900 | – | > 100000 | – | 2780 | – | 3450 | – | > 65200 | – | 1660 | – | 6940 | – | > 40900 | – | 27900 | – | 3580
